“Also recorded” adds a separate entry of the source.
Key:
[1] = biological target: anthrax lethal factor protease (Bacillus anthracis, UniProt P15917); experiment: biochemical; format: biochemical
J774A.1 cells = format: cell-based

Chain of anthrax lethal factor protease (P15917 34-809 limits assumed): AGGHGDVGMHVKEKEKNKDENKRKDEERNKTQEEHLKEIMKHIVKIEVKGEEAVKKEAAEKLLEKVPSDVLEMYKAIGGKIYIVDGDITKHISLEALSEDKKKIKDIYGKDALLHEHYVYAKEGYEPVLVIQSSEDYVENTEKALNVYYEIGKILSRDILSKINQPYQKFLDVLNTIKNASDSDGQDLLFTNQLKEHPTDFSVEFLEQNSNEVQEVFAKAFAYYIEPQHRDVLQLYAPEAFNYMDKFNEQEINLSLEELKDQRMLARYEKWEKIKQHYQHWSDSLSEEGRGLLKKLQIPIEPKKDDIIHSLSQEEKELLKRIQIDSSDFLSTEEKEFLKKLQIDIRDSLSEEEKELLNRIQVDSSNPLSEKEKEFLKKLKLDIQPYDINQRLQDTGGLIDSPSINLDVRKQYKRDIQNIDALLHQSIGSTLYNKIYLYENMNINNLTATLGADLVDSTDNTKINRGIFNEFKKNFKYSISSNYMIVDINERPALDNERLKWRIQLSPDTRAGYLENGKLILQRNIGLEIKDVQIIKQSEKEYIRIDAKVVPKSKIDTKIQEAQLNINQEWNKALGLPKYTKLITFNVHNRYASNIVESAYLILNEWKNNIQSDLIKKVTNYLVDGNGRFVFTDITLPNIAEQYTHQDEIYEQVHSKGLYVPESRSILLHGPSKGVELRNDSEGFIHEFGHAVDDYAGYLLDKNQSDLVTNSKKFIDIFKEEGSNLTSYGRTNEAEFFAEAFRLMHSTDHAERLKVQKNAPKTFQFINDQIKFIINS

## Cc1cc(N)c2cc(NC(=O)Nc3ccc4nc(C)cc(N)c4c3)ccc2n1 [NSC 12155]
[1]
  Inhibition type: competitive inhibition
  Ki: 0.5 µM
  Km(app) with inhibitor concentration: increased
  effect on the Vmax: no effect
  inhibition at 20 µM: 95%
  inhibition of LF activity (in words): strong inhibition
J774A.1 cells
  protection (in words): lower protection; also recorded: some protection

## N=C(N)c1ccc(Oc2ccc(-c3cc4ccc(C(=N)N)cc4[nH]3)cc2)cc1 [NSC 240898]
[1]
  Percent Inhibition: 72

## N=C(N)c1ccc2[nH]c(/C=C/c3cc4cc(C(=N)N)ccc4o3)cc2c1 [NSC 290107]
[1]
  Percent Inhibition: 85

## N=C(N)c1ccc2cc(/C=C/c3cc4ccc(C(=N)N)cc4o3)[nH]c2c1 [NSC 294200]
[1]
  Percent Inhibition: 92

## C(=C\c1cc2ccc(C3=NCCN3)cc2o1)/c1cc2cc(C3=NCCN3)ccc2[nH]1 [NSC 294201]
[1]
  Percent Inhibition: 88

## N=C(N)c1ccc2[nH]c(/C=C/c3cc4ccc(C(=N)N)cc4o3)cc2c1 [NSC 294203]
[1]
  Percent Inhibition: 92

## C(=C\c1cc2ccc(C3=NCCN3)cc2o1)/c1cc2cc(C3=NCCN3)ccc2[nH]1 [NSC 294204]
[1]
  Percent Inhibition: 84

## O=C(Nc1ccc(C2=NCCN2)cc1)c1cc2ccc(C3=NCCN3)cc2[nH]1 [NSC 294206]
[1]
  Percent Inhibition: 56

## C(=C\c1cc2ccc(C3=NCCN3)cc2o1)/c1cc2ccc(C3=NCCN3)cc2o1 [NSC 294494]
[1]
  Percent Inhibition: 29

## N=C(N)c1ccc(-c2[nH]c3cc(C(=N)N)ccc3c2N)cc1 [NSC 300509]
[1]
  Percent Inhibition: 46

## C/C(=C\c1ccc(/C=C/c2cc3ccc(C4=NCCN4)cc3[nH]2)[nH]1)C1=NCCN1 [NSC 317880]
[1]
  Percent Inhibition: 93

## c1cc2cc(-c3ccc(-c4cc5ccc(C6=NCCN6)cc5[nH]4)cc3)[nH]c2cc1C1=NCCN1 [NSC 317881]
[1]
  Percent Inhibition: 97

## N=C(N)c1ccc(/C=C/c2cc3cc(C(=N)N)ccc3[nH]2)cc1 [NSC 317884]
[1]
  Percent Inhibition: 95

## N=C(N)c1ccc(/C=C/c2cc3ccc(C(=N)N)cc3[nH]2)cc1 [NSC 317886]
[1]
  Percent Inhibition: 93

## N=C(N)N/N=C/c1ccc(-c2cc3ccc(/C=N/NC(=N)N)cc3s2)cc1 [NSC 341909]
[1]
  Percent Inhibition: 90

## c1cc(-c2[nH]c3cc(C4=NCCN4)ccc3c2-c2cc3ccc(C4=NCCN4)cc3[nH]2)ccc1C1=NCCN1 [NSC 341911]
[1]
  Percent Inhibition: 64

## CCOc1ccc2c(N)c3ccc(/N=N/c4ccc(N)nc4N)cc3nc2c1 [NSC 354961]
[1]
  Percent Inhibition: 95

## Nc1ccc(/N=N/c2ccc3cc4ccc(/N=N/c5ccc(N)nc5N)cc4nc3c2)c(N)n1 [NSC 354962]
[1]
  Percent Inhibition: 40

## Nc1c(/C=C/c2cc3cc(C4=NCCN4)ccc3o2)[nH]c2cc(C3=NCCN3)ccc12 [NSC 357756]
[1]
  Inhibition type: competitive inhibition
  Ki: 4.9 ± 1.7 µM
  Km(app) with inhibitor concentration: increased
  effect on the Vmax: no effect
  inhibition at 20 µM: 90%
J774A.1 cells
  protection: about 96%
  protection (in words): some protection

## N=C(N)c1ccc(N=Nc2cc(N=Nc3ccc(C(=N)N)cc3)c(O)cc2O)cc1 [NSC 359465]
[1]
  inhibition at 20 µM: 48%

## c1cc2cc(-c3ccc4cc(-c5ccc6oc(C7=NCCN7)cc6c5)[nH]c4c3)[nH]c2cc1C1=NCCN1 [NSC 369718]
[1]
  inhibition at 20 µM: 90%
J774A.1 cells
  protection (in words): lower protection; also recorded: some protection

## c1cc(-c2nc3cc(-c4nc5cc(C6=NCCN6)ccc5[nH]4)ccc3[nH]2)ccc1C1=NCCN1 [NSC 369721]
[1]
  Inhibition type: competitive inhibition
  Ki: 4.2 ± 0.21 µM
  Km(app) with inhibitor concentration: increased
  effect on the Vmax: no effect
  inhibition at 20 µM: 90%
J774A.1 cells
  protection (in words): ineffective

## c1cc(C2=NCCN2)ccc1Nc1ccc(-c2cc3ccc(C4=NCCN4)cc3[nH]2)cc1 [NSC 377362]
[1]
  inhibition at 20 µM: 33%

Source: US7781183B2 (priority 2003, dated 2010)
